From patent US12492173B2, “Herbicidal substituted N-tetrazolyl aryl carboxamides” (Bayer Aktiengesellschaft, priority 2019, dated 2025)

Key:
Assay type in all cases: in vivo
Avena fatua = assay: Post-emergence herbicidal action, AVEFA; set-up: key: % herbicidal action vs untreated; 100 = plants died, 0 = like control; settings: for herbicidal action AVEFA: Dosage 80 g/ha; for Herbicidal action against AVEFA: post-emergence
Summary of the method: (§1)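 Treatment: post-emergence spray, one-leaf stage. Medium: sandy loam, greenhouse. Carrier: 600–800 l/ha water, 0.2% wetting agent. Read-out: visual % activity at ~3 weeks, untreated plants as reference.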

Echinochloa crus-galli = assay: Pre-emergence herbicidal action, ECHCG; set-up: key to Herbicidal action against ECHCG: % activity: 100 = plants have died, 0 = like control plants; settings: for herbicidal action ECHCG / herbicidal activity ECHCG: dosage 320 g/ha; for herbicidal activity ECHCG: scored visually after 3 weeks vs untreated controls (100% = plants have died)
Summary of the method: (§2)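 Seeds were covered with sandy loam soil, then received a pre-emergence surface spray of the WP- or EC-formulated compound. After 3 weeks under good greenhouse growth conditions, damage was scored visually in percent.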

Amaranthus retroflexus = assay: Post-emergence herbicidal action, AMARE; set-up: key: % herbicidal action vs untreated; 100 = plants died, 0 = like control; settings: for herbicidal action AMARE: Dosage 80 g/ha; for Herbicidal action against AMARE: post-emergence
Summary of the method: as §1

Setaria viridis = assay: Pre-emergence herbicidal action, SETVI; set-up: key to Herbicidal action against SETVI: % activity: 100 = plants have died, 0 = like control plants; settings: for herbicidal action SETVI / herbicidal activity SETVI: dosage 320 g/ha; for herbicidal activity SETVI: scored visually after 3 weeks vs untreated controls (100% = plants have died)
Summary of the method: as §2

Matricaria inodora = assay: Pre-emergence herbicidal action, MATIN; set-up: key to Herbicidal action against MATIN: % activity: 100 = plants have died, 0 = like control plants; settings: for herbicidal action MATIN / herbicidal activity MATIN: dosage 320 g/ha; for herbicidal activity MATIN: scored visually after 3 weeks vs untreated controls (100% = plants have died)
Summary of the method: as §2

Pharbitis purpurea = assay: Pre-emergence herbicidal action, PHBPU; settings: dosage 320 g/ha, scored visually after 3 weeks vs untreated controls (100% = plants have died)
Summary of the method: as §2

[1] = comparative experiment, 20 g of a.i./ha
[2] = comparative experiment, 80 g of a.i./ha

Compound | herbicidal action AVEFA (Avena fatua) | herbicidal action ECHCG (Echinochloa crus-galli) [%] | herbicidal action AMARE (Amaranthus retroflexus) | herbicidal action SETVI (Setaria viridis) [%] | herbicidal action MATIN (Matricaria inodora) [%] | further results
CSCc1c(C)ccc(C(=O)Nc2nnnn2C)c1Cl [Example 1-287] | 80 | 80 | 100 | 90 | 90 | 
CCS(=O)(=O)c1c(C(F)(F)F)ccc(C(=O)Nc2nnnn2C)c1Br [Example V-13, 2-bromo-3-(ethylsulfonyl)-N-(1-methyl-1-1H-tetrazol-5-yl)-4-(trifluoromethyl)benzamide, reference compound] |  |  |  |  |  | Herbicidal action against AVEFA (Avena fatua; [1]): 0; Herbicidal action against ECHCG (Echinochloa crus-galli; [2]): 0; Herbicidal action against AMARE (Amaranthus retroflexus; [1]): 0; Herbicidal action against SETVI (Setaria viridis; [2]): 0; Herbicidal action against MATIN (Matricaria inodora; [2]): 0
CCn1nnnc1NC(=O)c1ccc(C(F)F)c(C[S+](C)[O-])c1SC (stereo not drawn) [Example 2-171] |  |  | 100 |  |  | herbicidal activity ECHCG (Echinochloa crus-galli): 100%; herbicidal activity PHBPU (Pharbitis purpurea): 90%; herbicidal activity SETVI (Setaria viridis): 100%; herbicidal activity MATIN (Matricaria inodora): 100%
CCn1nnnc1NC(=O)c1ccc(C(F)F)c(CSC)c1SC [Example 2-170] |  |  | 100 |  |  | herbicidal activity ECHCG (Echinochloa crus-galli): 100%; herbicidal activity SETVI (Setaria viridis): 100%; herbicidal activity MATIN (Matricaria inodora): 100%
CCCn1nnnc1NC(=O)c1ccc(S(C)(=O)=O)c(CS(C)(=O)=O)c1C [Example 3-39] | 80 | 90 | 100 | 80 | 100 | 
CCCn1nnnc1NC(=O)c1ccc(C(F)(F)F)c(CSCC(F)(F)F)c1Cl [Example 3-311] | 100 | 80 | 100 | 100 | 100 | 
COc1c(C(=O)Nc2nnnn2C)ccc(C(F)(F)F)c1C[S+](C)[O-] (stereo not drawn) [Example 1-135] |  | 100 | 100 |  | 90 | 
Cc1ccc(C(=O)Nc2nnnn2C)c(Cl)c1C[S+](C)[O-] (racemic) [Example 1-288] |  | 90 | 100 |  | 100 | 
CCn1nnnc1NC(=O)c1ccc(S(C)(=O)=O)c(CS(C)(=O)=O)c1Cl [Example 2-280] |  | 100 |  | 90 | 90 | Herbicidal action against AVEFA (Avena fatua; dosage 80 g/ha): 90; Herbicidal action against AMARE (Amaranthus retroflexus; dosage 80 g/ha): 90
CCCn1nnnc1NC(=O)c1ccc(C(F)F)c(CS(=O)(=O)CC)c1Cl [Example 3-325] | 100 |  |  |  |  | herbicidal activity ECHCG (Echinochloa crus-galli): 100%; herbicidal activity PHBPU (Pharbitis purpurea): 100%; herbicidal activity SETVI (Setaria viridis): 100%; herbicidal activity MATIN (Matricaria inodora): 100%
CCS(=O)(=O)Cc1c(C(F)F)ccc(C(=O)Nc2nnnn2C)c1Cl [Example 1-325] | 90 |  |  |  |  | herbicidal activity ECHCG (Echinochloa crus-galli): 100%; herbicidal activity PHBPU (Pharbitis purpurea): 100%; herbicidal activity SETVI (Setaria viridis): 100%; herbicidal activity MATIN (Matricaria inodora): 100%
CCn1nnnc1NC(=O)c1ccc(C(F)(F)F)c(CSCC(F)(F)F)c1Cl [Example 2-311] | 90 |  | 100 |  |  | herbicidal activity ECHCG (Echinochloa crus-galli): 100%; herbicidal activity SETVI (Setaria viridis): 100%; herbicidal activity MATIN (Matricaria inodora): 100%
Cc1c(C(=O)Nc2nnnn2C)ccc(C(F)F)c1C[S+](C)[O-] (stereo not drawn) [Example 1-108] |  | 100 | 100 | 100 | 90 | 
CCCn1nnnc1NC(=O)c1ccc(C(F)(F)F)c(CSCC)c1C [Example 3-86] | 80 | 100 |  | 90 | 100 | 
CCCn1nnnc1NC(=O)c1ccc(C(F)(F)F)c(CS(C)(=O)=O)c1Br [Example 3-382] |  | 90 | 100 |  | 100 | 
CCn1nnnc1NC(=O)c1ccc(C(F)F)c(C[S+](C)[O-])c1C (stereo not drawn) [Example 2-108] |  | 90 | 100 | 100 | 100 | 
CCCn1nnnc1NC(=O)c1ccc(I)c(C[S+](C)[O-])c1Cl (stereo not drawn) [Example 3-363] | 80 | 100 | 100 | 100 | 100 | 
